Measurements: patent publication US20240374646A1, “COMPOSITION FOR INHIBITING INFLAMMATION OR AGING OF STEM CELLS, AND METHOD FOR INHIBITING INFLAMMATION OR AGING BY USING SAME” (MITOIMMUNE THERAPEUTICS INC., priority 2021, published 2024)

Tests used:
Type in all cases: cell-based, human
mitofusion 2 (MFN2) = assay: Real-time qPCR, mitochondrial dynamics gene MFN2; conditions: vs TNF-α/IFN-γ-exposed MSC control (TI); FIG. 2B
Procedure: (§1) Real-time qPCR was performed using an Easy-Spin Total RNA Kit (iNtRON, Seongnam, Korea) to extract total RNA from hPD-MSCs and RNA concentration was adjusted to 100 ng/μL using a microplate spectrophotometer (Epoch™ Microplate Spectrophotometer, BioTek, Winooski, VT, USA), and the extracted RNA was reverse transcribed into cDNA using RT PreMix (dT20) (Bioneer, Seoul, Korea) using a SimpliAmp Thermal Cycler (Life Technologies, Carlsbad, CA, USA). Real-time qPCR was performed using a real-time PCR machine (CFX Connect, Bio-Rad, Hercules, CA, USA), SYBR Green Supermix (Bio-Rad) and the relevant primers, and all experiments were performed in triplicate for statistical analysis.
To investigate mitochondrial dynamics, real-time qPCR was performed to analyze the expression of dynamin-related protein 1 (DRP1), which is a mitochondrial division-related gene, and mitofusion 1 (MFN1) and mitofusion 2 (MFN2), which are […] mitochondrial membrane fusion-related genes. As the real-time qPCR analysis method, the same method described in Experimental Example 1-2 above was used, and the results are shown in FIG. 2B.

[1] = tested on: monocyte chemotactic protein-1 (MCP-1); assay: Real-time qPCR, SASP factor MCP-1; conditions: vs MSCs exposed to TNF-α/IFN-γ; FIG. 4C
Procedure: as §1
(§2) In the present experiment, the expression of IL-1β, IL-6, and monocyte chemotactic protein-1 (MCP-1), which are SASP-associated factors of the untreated MSC control, the TNF-α/IFN-γ-exposed MSC control (TI), and the experimental group treated with the example compound in the TNF-α/IFN-γ-exposed MSC control was analyzed by real-time qPCR. As the real-time qPCR analysis method, the same method described in Experimental Example 1-2 above was used, and the results are shown in FIGS. 4A to 4C.

[2] = tested on: TNF-α/IFN-γ-exposed hPD-MSCs; assay: Reactive oxygen species (ROS) assay, H2DCFDA; conditions: TNF-α/IFN-γ-exposed MSC control (TI) treated with compound; FIG. 3F
Procedure: To investigate ROS levels, a total of 5×10^3 hPD-MSCs were seeded into each well of a 96-well black-microplate (SPL, 33196) and cultured for 24 hours, and then the cells were washed and cultured in a pre-warmed Hanks' balanced salt solution (14025092, ThermoFisher) containing 50 μM H2DCFDA (D399; ThermoFisher) for 30 minutes. Fluorescence intensity at a wavelength of 555 nm was measured at a wavelength of 488 nm using a Multi-Mode MicroPlate Reader (FlexStation 3, Molecular Devices, Silicon Valley, CA, USA), and the results are shown in FIG. 3F.

[3] = tested on: TNF-α/IFN-γ-exposed hPD-MSCs; assay: Oxygen consumption rate (OCR), Seahorse XFp Extracellular Flux Analyzer
Procedure: An oxygen consumption rate was measured to assess a mitochondrial metabolic state using a Seahorse XFp Extracellular Flux Analyzer (Agilent, Santa Clara, CA, USA). A total of 10,000 cells/well were seeded in Seahorse XFp cell culture miniplates and cultured with or without TNF-α, IFN-γ and the example compound for 24 hours prior to analysis. The growth medium was replaced with a Seahorse XF base medium containing 2 mM L-glutamine, 5.5 mM D-glucose, and 1 mM sodium pyruvate according to the composition of α-MEM. Cells were treated with 1 μM oligomycin, 0.5 μM FCCP, and 0.5 μM rotenone/antimycin A during the assay. The OCR was measured for 2 minutes after mixing for 3 minutes, and this process was repeated 12 times. A basal OCR was normalized according to the protein concentration determined by BCA analysis.
The OCRs of the untreated MSC control, the TNF-α/IFN-γ-exposed MSC control (TI), and the experimental group treated with the example compound in the TNF-α/IFN-γ-exposed MSC control were measured by the above method, and the results are shown in FIG. 3A.
The basal respiration, ATP production amount, proton leakage, and spare respiratory capacity (SRC) for each of the above samples are shown in FIGS. 3B to 3E.

IL-1β = assay: Real-time qPCR, SASP factor IL-1β; conditions: vs MSCs exposed to TNF-α/IFN-γ; FIG. 4A
Procedure: as §1, §2

p16 = assay: Real-time qPCR, p16 cell cycle-related gene expression; conditions: TNF-α/IFN-γ-exposed MSCs treated with compound; FIG. 1C
Procedure: Human placenta-derived mesenchymal stem cells (hPD-MSCs) were harvested from inside the placental chorion, and the harvested cells were cultured in an alpha-Minimum Essential medium (Cytiva, Marlborough, MA, USA) supplemented with 10% fetal bovine serum (ThermoFisher, Waltham, MA, USA), 1% penicillin/streptomycin (ThermoFisher, Waltham, MA, USA), 25 ng/mL human fibroblast growth factor-4 (Peprotech, Rocky Hill, NJ, USA) and 1 μg/mL heparin (Merck, San Francisco, CA, USA). A total of 1×10^5 hPD-MSCs were seeded in a cell culture dish (90×20 mm) (SPL, Pocheon, Korea) and cultured at 37° C. in an incubator containing 5% CO2. The cells were subcultured every 4 days until reaching 70 to 80% confluency. Expanded cells were obtained at passage 12 or 13. During subculture, viable cells were stained with Trypan blue (Merck) and the number of cells was manually counted.
In a passage for sample extraction, hPD-MSCs were cultured for 24 hours in a medium with or without an example compound (5-[(1,1-dioxido-4-thiomorpholinyl)methyl]-2-phenyl-N-(tetrahydro-2H-pyran-4-yl)-1H-indole-7-amine) while including 2.5 ng/mL TNF-α (Peprotech) and 25 ng/mL IFN-γ (Peprotech).
In the present experiment, the expression levels of stem cell differentiation-related genes and cell cycle-related genes were analyzed by qPCR. […]

With `O=S1(=O)CCN(Cc2cc(NC3CCOCC3)c3[nH]c(-c4ccccc4)cc3c2)CC1` [example compound, 5-[(1,1-dioxido-4-thiomorpholinyl)methyl]-2-phenyl-N-(tetrahydro-2H-pyran-4-yl)-1H-indole-7-amine] the “reduction of MFN2 expression” value (mitofusion 2 (MFN2)) was about 50%, the “decrease of MCP-1 expression” value [1] was about 15% and the ROS value [2] was “reduced to the level of the untreated MSC control”. The “spare respiratory capacity (SRC)” value ([3]; TNF-α/IFN-γ-exposed MSC control treated with compound, FIG. 3E) was “almost the same value as the untreated MSC control”, the “oxygen consumption rate (OCR)” value ([3]; TNF-α/IFN-γ-exposed MSCs, 24 hours, FIG. 3A) was “restored TNF-α/IFN-γ-exposed MSCs to quiescence” and the “decrease of basal respiration” value ([3]; vs TNF-α/IFN-γ-exposed MSC control (TI), FIG. 3B) was “about 80 pmol/min/cell”. The “downregulation of oxygen consumption amount for ATP production” value ([3]; vs TNF-α/IFN-γ-exposed MSC control (TI), FIG. 3C) was “about 70 pmol/min/cell”, the “decrease of IL-1β expression” value (IL-1β) was “about 55%” and the “p16 expression (relative to untreated MSC control)” value (p16) was “remarkably decreased”.
